According to patent EP1921068A1, “Indazole and indole derivatives as anti-inflammatory agents” (Bayer Schering Pharma Aktiengesellschaft, priority 2006, dated 2008):

What was measured:
[1] = target: T1, glucocorticoid receptor (GR) (Homo sapiens, UniProt P04150); experiment: Binding to recombinantly produced glucocorticoid receptor (cytosol preparations of baculovirus-infected Sf9 cells, [3H]-dexamethasone as reference substance); conditions: recombinant GR
T1 construct: made in house; host or cells: Sf9 insect cells infected with recombinant baculovirus; cytosol preparation
T1 sequence (P04150 1-777): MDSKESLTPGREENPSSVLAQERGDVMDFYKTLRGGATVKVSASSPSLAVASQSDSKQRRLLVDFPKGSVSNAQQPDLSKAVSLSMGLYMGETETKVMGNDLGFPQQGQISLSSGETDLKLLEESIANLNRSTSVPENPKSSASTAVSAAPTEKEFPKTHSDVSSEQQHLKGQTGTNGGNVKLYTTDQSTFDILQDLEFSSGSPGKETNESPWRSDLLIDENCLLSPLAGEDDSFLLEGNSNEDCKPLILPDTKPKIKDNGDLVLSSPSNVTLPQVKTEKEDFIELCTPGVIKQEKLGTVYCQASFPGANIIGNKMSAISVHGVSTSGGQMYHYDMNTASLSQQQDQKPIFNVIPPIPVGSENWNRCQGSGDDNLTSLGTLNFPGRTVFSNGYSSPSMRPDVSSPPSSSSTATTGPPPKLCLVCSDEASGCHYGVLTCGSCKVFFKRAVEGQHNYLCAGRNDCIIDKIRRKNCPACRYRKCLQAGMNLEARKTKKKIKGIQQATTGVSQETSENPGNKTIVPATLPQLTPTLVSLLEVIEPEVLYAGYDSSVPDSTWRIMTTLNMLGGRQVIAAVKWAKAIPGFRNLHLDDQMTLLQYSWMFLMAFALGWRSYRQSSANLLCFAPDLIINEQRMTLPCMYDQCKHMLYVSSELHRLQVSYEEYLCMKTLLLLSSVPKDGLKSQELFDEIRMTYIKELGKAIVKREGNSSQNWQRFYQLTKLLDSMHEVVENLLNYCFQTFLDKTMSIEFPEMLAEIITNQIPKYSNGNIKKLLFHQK
Description: The binding of the substances to the glucocorticoid receptor (GR) and other steroid hormone receptors (mineral corticoid receptor (MR), progesterone receptor (PR) and androgen receptor (AR)) is examined with the aid of recombinantly produced receptors. Cytosol preparations of Sf9 cells, which had been infected with recombinant baculoviruses, which code for the GR, are used for the binding studies. In comparison to reference substance [^3H]-dexamethasone, the substances show a high to very high affinity to GR. IC50(GR) = 11,5 nM was thus measured for the compound from Example A16.

[2] = test system: secretion of cytokine IL-8 into the human monocyte cell line THP-1; experiment: Inhibition of LPS-triggered IL-8 secretion in THP-1 cells (ELISA of supernatant); type: cell-based
Protocol: The concentration of the cytokines was determined in the supernatant by means of commercially available ELISA kits.

CC(C)(CC(O)(CNc1cccc2c1cnn2-c1ccc(F)nc1)C(F)(F)F)c1cccc2c1OCO2 (stereo not drawn) [Example A16]
IC50 [1]: 11.5 nM | Emax ([2]; efficacy relative to dexamethasone, read-out: eff. relative to dexamethasone): 94% | IC50 ([2]; read-out: IC50(IL8)): 0.3 nM
